According to publication PMC3293629 (Nature Communications, 2012):
Read-outs that look alike come from different tables or passages of the source.

Experiments:
[1] = system: CD4^+ T cells binding the HLA-DR1/HA305−320 tetramer; type: cell-based, human
[2] = system: Flu1-specific clone HA1.7; assay: IFN-γ ELISpot, other Flu1-specific clones; type: cell-based, human; conditions: Fig. 1c, peptide titration, compared with Flu1
[3] = system: HA1.7, F11 and HA-C6 TCRs; assay: SPR equilibrium binding of HA1.7, F11 and HA-C6 TCRs, combined; design: species or system human; conditions: Arg at P10 or P11
[4] = system: TRB clonotypes of tetramer-sorted CD4^+ T cells; type: cell-based, human
[5] = system: CD4^+ HLA-DR1/HA305−320 tetramer-positive cells; type: cell-based, human

| Sequence | tetramer-positive expansion, % of CD3^+ T cells ([1]; short-term T-cell line primed with peptide, HLA-DR1/HA305−320 tetramer) | responsiveness to altered peptides, other clones (in words) [2] | increase in TCR binding affinity [3] | Freq. of clonotype ([4]; TRBV 5–6, CDR3 […], TRBJ 1–2) | Freq. of clonotype ([4]; TRBV 12–3/4, CDR3 […], TRBJ 1–5) | clonotypic composition, repeat experiment versus first (in words) ([4]; same donor, Chi square 0.72, P=0.70, data not shown) | tetramer-positive expansion, % of CD3^+ T cells [1] | clonotypic composition, repeat experiment versus first (in words) [4] | number of expanded CD4^+ HLA-DR1/HA305−320 tetramer-positive cells [5] |
| --- | --- | --- | --- | --- | --- | --- | --- | --- | --- |
| PKYVKQNTLKLAR [Flu3] | 28.7 % of CD3^+ T cells | striking increase in responsiveness | > 2 fold | 69.70% | 30.30% | no significant difference | – | – | – |
| PKYVKQNTLKLAT [Flu1, reference compound] | – | – | – | – | – | – | 19.4 % of CD3^+ T cells | no significant difference | ≥ 5×10^4 cells |
